In patent US20060147564A1, “Composition for preventing or treating allergic disease using black rice extract and its therapeutic use” (CELLMICS CO. LTD, priority 2003, published 2006):

What was measured:
[1] = test system: mice with asthma induced by ovalbumin; assay: Accumulation of eosinophiles in airway (BALF cell count) of mice with asthma induced by ovalbumin (Example 5); type: in vivo, mice (Balb/c); conditions: 2nd to 23rd day, negative control 62.7 ± 4.3, n=5
Protocol: (§1) In order to prepare animal models with asthma, 0.5 ml of ovalbumin solution (500 μg of ovalbumin and 10 mg of alumina gel were dissolved in 1 ml of PBS) was injected into abdominal cavities of twenty 5-week old female mice(Balb/c, Orient, Seoul) on first and 10th experiment day. The ovalbumin solution was sprayed on each mouse on the 21st, the 22nd and the 23rd day to induce asthma.
(§2) Mice (n=15) with asthma induced by ovalbumin were divided into three groups; one was used as a negative control treated with nothing and two other groups were used as experimental groups each treated with cyanidin glycoside by 1.5 mg/kg and 4.5 mg/kg, respectively. Cyanidin glycoside was orally administered once a day in succession from the 2nd day to the 23rd day.
24 hours after final sensitization, each mouse was sacrificed using ether and a microtube was connected into trachea. 0.8 ml of PBS was injected and recovered through the microtube, which was repeated twice. The obtained bronchoalveolar lavage fluid (BALF) was centrifuged to separate cells in airway lumen and various proteins secreted from the cells and lung.
The separated cells were fixed on a slide using cytospin and stained with Diff-Quick staining solution. Photographs were taken by a digital camera attached on Carzeiss microscope (model: AXIOVERT 25-CEL). 5 random regions per each sample were picked to count eosinophiles, and the percentage of eosinophiles in each sample was represented in Table 1.

[2] = test system: mice with asthma induced by ovalbumin; assay: Inflammation in lung of mice with asthma induced by ovalbumin (microphotographs, Example 5); type: in vivo, mice (Balb/c); conditions: 1.5 mg/kg and 4.5 mg/kg orally once a day; FIG. 4C and 4D
Protocol: as §1, §2
Precisely, as cyanidin glycoside concentration increased, the percentage of eosinophiles in airway decreased to 49% and 38% each; compared with a negative control. […] Inflammation in lung cells of the sacrificed mice was also investigated and the result was represented in FIG. 4.

[3] = test system: mice with asthma induced by ovalbumin; assay: Inflammation in lung of mice with asthma induced by ovalbumin (microphotographs, Examples 2 and 4); type: in vivo, mice (C57BL/6); conditions: intraperitoneal injection twice
Protocol: At first, in order to prepare animal models of asthma, 200 μl of ovalbumin solution (ovalbumin 200 μg and alumina gel 1000 μg were dissolved in physiological saline) was injected in each abdominal cavity of twenty 10-week old female mice (C57BL/6, Damul Science, Daejeon, Korea). Two weeks later, 200 μl of ovalbumin solution(2% w/v) was sprayed on each mouse to sensitize it. 200 μl of 1% ovalbumin solution was sprayed again on the 21st, the 22nd and the 23rd day, and 10% ovalbumin solution was sprayed again on the 25th day to sensitize.
The above mice with asthma induced by sensitizing with 10% ovalbumin were divided into two groups; one was used as a negative control group treated with nothing and the other was treated with 10 mg/kg of black rice extract. Black rice extract was administered by intraperitoneal injection and the injection was performed twice on the 24th and the 25th day from the treatment of ovalbumin.
48 hours after the treatment of black rice extract, mice were sacrificed using ether. Inflammation in lung of each mouse was investigated. […] Therefore, it was confirmed that black rice extract could inhibit asthma effectively. […]

[4] = test system: mice with asthma induced by ovalbumin; assay: Accumulation of eosinophiles in airway (BALF cell count) of mice with asthma induced by ovalbumin (Example 3); type: in vivo, mice (C57BL/6); conditions: FIG. 2; for percentage of eosinophiles in airway: intraperitoneal injection twice, ovalbumin-exposed mice 58%
Protocol: At first, in order to prepare animal models of asthma, 200 μl of ovalbumin solution (ovalbumin 200 μg and alumina gel 1000 μg were dissolved in physiological saline) was injected in each abdominal cavity of twenty 10-week old female mice (C57BL/6, Damul Science, Daejeon, Korea). Two weeks later, 200 μl of ovalbumin solution(2% w/v) was sprayed on each mouse to sensitize it. 200 μl of 1% ovalbumin solution was sprayed again on the 21st, the 22nd and the 23rd day, and 10% ovalbumin solution was sprayed again on the 25th day to sensitize. […] Each compound was administered by intraperitoneal injection and the injection was performed twice on the 24th and the 25th day from the treatment of ovalbumin. On the second day from the treatment, each mouse was sacrificed using ether. Then, a microtube was connected to trachea. PBS (phosphate-buffered saline, 0.8 ml) was injected and recovered through the microtube, which was repeated twice, resulting in the obtainment of bronchoalveolar lavage fluid (BALF). The fluid was centrifuged to separate cells in airway lumen and various proteins secreted from the cells and lung. The separated cells were fixed on a slide using cytospin and stained with Diff-Quick staining solution. Photographs were taken by a digital camera attached on Carzeiss microscope (model: […]). 5 random regions per each sample were picked to count eosinophiles, and the percentage of eosinophiles in each sample was shown in FIG. 2.

Compound	Percentage of eosinophiles ([1]; 1.5 mg/kg orally once a day) [%]	Percentage of eosinophiles ([1]; 1.5 mg/kg orally once a day, listed as cyanidin glycoside) [%]	Percentage of eosinophiles ([1]; 4.5 mg/kg orally once a day) [%]	Percentage of eosinophiles ([1]; 4.5 mg/kg orally once a day, listed as cyanidin glycoside) [%]	inflammation in bronchi [2]	inflammation-inhibiting effect ([3]; 0.5 mg/kg, data not shown)	inflammation in bronchi ([3]; 1.25 mg/kg, 48 hours after treatment, FIG. 3)	accumulation of eosinophiles in airway ([4]; 0.5 mg/kg and 1.25 mg/kg, intraperitoneal injection)	percentage of eosinophiles in airway ([4]; 0.5 mg/kg) [%]	percentage of eosinophiles in airway ([4]; 1.25 mg/kg) [%]
OC[C@H]1O[C@@H](Oc2cc3c(O)cc(O)cc3[o+]c2-c2ccc(O)c(O)c2)[C@H](O)[C@@H](O)[C@@H]1O [Cyanidin glycoside, cyanidin 3-O-β-glucopyranoside]	49.5 ± 5.8	49	38.2 ± 6.2	38	remarkably reduced					
Oc1ccc(-c2[o+]c3cc(O)cc(O)c3cc2O)cc1.[Cl-] [pelargonidin, 3,5,7-trihydroxy-2-(4-hydroxyphenyl)-1-benzopyrylium chloride]						outstanding	remarkably reduced	inhibited	30	20
